Each structure is given as a SMILES string. “And” between values parts separate entries of the source, which are not always exact repeats. Equal values may be shown once.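 Interpolation was linear, between the two tested concentrations surrounding the appropriate level; five concentrations were tested over 48 hours in 96-well plates. GI50 is the concentration that inhibits growth by half. TGI is the concentration that stops growth completely.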

The values that follow come from PubChem BioAssay (NCI).

Test systems include RPMI-8226 leukemia; SR leukemia; SK-MEL-5 melanoma; LOX IMVI melanoma; MDA-MB-435; UACC-62 melanoma; U251 CNS; HCC-2998 colon; NCI-H522 lung; CAKI-1 renal.
What all share (assay): NCI tumour cell line growth inhibition, 48 h

On to `Clc1ccc2c(NCCNc3nc(N4CCOCC4)nc4ccccc34)ccnc2c1`, for which the GI50 is 1720 nM with RPMI-8226 leukemia; 313 nM in the assay on SR leukemia; 1750 nM in the assay with SK-MEL-5 melanoma; 1800 nM in the assay on LOX IMVI melanoma; 2340 nM with MDA-MB-435; 1940 nM in the assay with UACC-62 melanoma. Further, the GI50 with U251 CNS was 1710 nM; in the assay with HCC-2998 colon, 2670 nM; with NCI-H522 lung, 2030 nM. Besides, the TGI in the assay on RPMI-8226 leukemia was 5170 nM; in the assay on SR leukemia it was 2030 nM; in the assay on SK-MEL-5 melanoma, 3150 nM; with LOX IMVI melanoma it was 3450 nM; in the assay with MDA-MB-435, 5880 nM; in the assay with UACC-62 melanoma, 3750 nM. For the same compound, the TGI in the assay on U251 CNS came to 3400 nM; in the assay on HCC-2998 colon, 6540 nM; in the assay with NCI-H522 lung it was 3800 nM.

Consider `CN1CCCCC1CCN1c2ccccc2Sc2ccc(Br)cc21` (configuration not stated), for which the GI50 in the assay with RPMI-8226 leukemia was 2240 nM; in the assay on SR leukemia, 3120 nM; in the assay on SK-MEL-5 melanoma it was 1780 nM; with LOX IMVI melanoma, 1990 nM; with MDA-MB-435, 1980 nM; in the assay with UACC-62 melanoma it was 1830 nM. Further, the GI50 with CAKI-1 renal is 2970 nM; in the assay with U251 CNS, 2130 nM; in the assay with HCC-2998 colon, 1970 nM; with NCI-H522 lung, 1730 nM. The TGI in the assay on RPMI-8226 leukemia was 5490 nM; in the assay with SR leukemia, 8240 nM; in the assay with SK-MEL-5 melanoma, 3470 nM; in the assay with LOX IMVI melanoma it was 3910 nM; in the assay on MDA-MB-435, 4240 nM; in the assay on UACC-62 melanoma, 4100 nM. Further, the TGI is 10900 nM in the assay on CAKI-1 renal, 4660 nM in the assay on U251 CNS, 4110 nM in the assay with HCC-2998 colon and 3490 nM in the assay on NCI-H522 lung.

As to `CCCCNc1ncnc2c1cnn2-c1ccccc1`, the GI50 with RPMI-8226 leukemia was 3760 nM; in the assay with SR leukemia it was 444 nM; in the assay with SK-MEL-5 melanoma it was 1190 nM; in the assay with LOX IMVI melanoma, 3700 nM; with MDA-MB-435, 237 nM; in the assay with UACC-62 melanoma it was 5040 nM. The GI50 was 2090 nM in the assay on CAKI-1 renal, 2840 nM with U251 CNS, 5720 nM with HCC-2998 colon and 799 nM with NCI-H522 lung. For the same compound, the TGI in the assay with RPMI-8226 leukemia was over 28300 nM; in the assay with SR leukemia, over 100000 nM; in the assay with SK-MEL-5 melanoma, 11100 nM; in the assay with LOX IMVI melanoma it was over 100000 nM; in the assay with MDA-MB-435 it was 700 nM; with UACC-62 melanoma it was over 100000 nM. In addition, the TGI is over 40800 nM in the assay on CAKI-1 renal, over 61800 nM in the assay with U251 CNS, 37800 nM in the assay on HCC-2998 colon and 9940 nM with NCI-H522 lung.

`CC1(C)CC(O)CC(C)(C)N1O`: the TGI in the assay with RPMI-8226 leukemia, in the assay on SR leukemia, in the assay on SK-MEL-5 melanoma, in the assay on LOX IMVI melanoma, in the assay on MDA-MB-435 and in the assay on UACC-62 melanoma was over 100000 nM throughout. Moreover, the TGI in the assay on CAKI-1 renal, in the assay with U251 CNS, with HCC-2998 colon and with NCI-H522 lung was over 100000 nM each time. Also, the GI50 in the assay with LOX IMVI melanoma, with U251 CNS and with NCI-H522 lung was over 100000 nM throughout.

In the case of `COc1cc(C(=O)c2cnc(-c3c[nH]c4cccc(C)c34)[nH]2)cc(OC)c1OC`, the GI50 with RPMI-8226 leukemia is 39.9 nM; in the assay with SK-MEL-5 melanoma, 3.65 nM; in the assay with LOX IMVI melanoma, 15.1 nM; in the assay with MDA-MB-435 it was 2.22 nM; with UACC-62 melanoma, 4.4 nM; in the assay on U251 CNS, 6.39 nM. In the assay on HCC-2998 colon, the GI50 is 18.3 nM. In addition, the TGI was 19800 nM in the assay on RPMI-8226 leukemia; over 100000 nM with SR leukemia; 22.1 nM and 36.6 nM in the assay on SK-MEL-5 melanoma; over 100000 nM with LOX IMVI melanoma; 5.1 nM in the assay with MDA-MB-435; over 100000 nM in the assay with UACC-62 melanoma. Further, the TGI with CAKI-1 renal is over 100000 nM; in the assay on U251 CNS, 49100 nM; with HCC-2998 colon, 29400 nM; in the assay on NCI-H522 lung, 22.4 nM.

For `O=c1[nH]c2cc(Cl)ccc2nc1/C(=N\Nc1ccccc1)C(O)c1ccc2c(c1)OCO2` (configuration not stated), the TGI in the assay on RPMI-8226 leukemia, with SR leukemia, in the assay on SK-MEL-5 melanoma, in the assay on LOX IMVI melanoma, in the assay on MDA-MB-435 and in the assay on UACC-62 melanoma was over 100000 nM throughout. Further, the TGI with CAKI-1 renal, with U251 CNS, in the assay on HCC-2998 colon and in the assay on NCI-H522 lung was over 100000 nM throughout.

`[Br][Pb]([c]1ccccc1)([c]1ccccc1)[c]1ccccc1`: the GI50 is 179 nM in the assay on RPMI-8226 leukemia; 103 nM in the assay with SR leukemia; 164 nM in the assay on SK-MEL-5 melanoma; 132 nM in the assay on LOX IMVI melanoma; 190 nM in the assay on MDA-MB-435; 186 nM with UACC-62 melanoma. In addition, the GI50 in the assay on CAKI-1 renal is 200 nM; in the assay with U251 CNS, 169 nM; with HCC-2998 colon, 191 nM; with NCI-H522 lung, 158 nM. In addition, the TGI in the assay on RPMI-8226 leukemia is 681 nM; in the assay with SR leukemia, over 100000 nM; with SK-MEL-5 melanoma it was 312 nM; in the assay on LOX IMVI melanoma, 299 nM; with MDA-MB-435 it was 435 nM; in the assay on UACC-62 melanoma it was 428 nM. Also, the TGI came to 454 nM in the assay with CAKI-1 renal, 309 nM with U251 CNS, 412 nM in the assay with HCC-2998 colon and 352 nM in the assay with NCI-H522 lung.

Regarding `Nc1ccc(CC[C@H]2CCC/C=C/[C@@H]3C[C@H](O)C[C@H]3[C@H](O)/C=C/C(=O)O2)cc1`, the GI50 in the assay on RPMI-8226 leukemia was 32.2 nM; with SR leukemia, 34.8 nM; in the assay on SK-MEL-5 melanoma it was under 13 nM; in the assay with LOX IMVI melanoma it was 23.1 nM; in the assay on MDA-MB-435 it was 38.8 nM; in the assay with UACC-62 melanoma, 48.8 nM. Further, the GI50 with CAKI-1 renal was 34.9 nM; in the assay on U251 CNS, 48 nM; in the assay on HCC-2998 colon it was 26.6 nM; with NCI-H522 lung, 81.6 nM. For the same compound, the TGI with RPMI-8226 leukemia came to 121 nM; in the assay with SR leukemia it was 7510 nM; in the assay on SK-MEL-5 melanoma it was 23.6 nM; in the assay on LOX IMVI melanoma it was 56.7 nM; in the assay with MDA-MB-435 it was 25200 nM; in the assay on UACC-62 melanoma, 14100 nM. In addition, the TGI with CAKI-1 renal is 1470 nM; in the assay on U251 CNS it was over 100000 nM; with NCI-H522 lung, 375 nM.
